From patent US6482849B1, “Inhibitors of α4β1 mediated cell adhesion” (Tanabe Seiyaku Co., Ltd., priority 1997, dated 2002)
Structures can show the parent of a compound that is named as a salt.

Key:
[1] = target: T1, α4β1 integrin (Jurkat T-cell adhesion to IL-1 stimulated endothelial cell monolayers) (Homo sapiens, UniProt P05556+P13612); assay: Jurkat-Endothelial Cell Adhesion Assay (Jurkat EC); assay type: cell-based; conditions: Jurkat cells on IL-1 stimulated HUVEC monolayers
T1 construct: a T-cell line, Jurkat, known to express the α4β1 integrin; host or cells: Jurkat T-cell line
Description: The following assay established the activity of the present compounds in inhibiting β1-mediated cell adhesion in a representative in vitro system. This assay measures the adhesive interactions of a T-cell line, Jurkat, known to express the α4β1 integrin, to endothelial monolayers in the presence of test compounds. The test compounds were added in increasing concentrations to T-cells and then the T-cell compound mixture was added to IL-1 stimulated endothelial cell monolayers. The plates were incubated, washed and the percentage of attached cells was quantitated. […] Human umbilical vein endothelial cells were purchased from Clonetics (San Diego, Calif.) at passage number 2. The cells were grown on 0.5% porcine skin gelatin pre-coated flasks (Sigma, St. Louis Mo.) in EGM-UV media (Clonetics, San Diego, Calif.) supplemented with 10% fetal bovine serum. Cells are refed every 2-3 days reaching confluence by day 4 to 6. […] The endothelial cells are not used following passage 6. Am The T-cell line Jurkat was obtained from American Type Tissue Culture Collection (Rockville, Md.) and the cells were cultured in RPMI containing 10% fetal calf serum. The cells were washed twice in Hank's Balanced Salt Solution (HBSS) and resuspended in Dulbecco's […] Eagle's Media (DMEM) containing 2.5 mg/ml Human Serum Albumin (HSA). Jurkat cells (1×10^6 cells/ml) were stained with 10 ng/ml BCECF-AM z z (Molecular Probes, Eugene, Ore.)) in HBSS without phenol red. The cells were loaded with BCECF for 60 minutes in the dark at 37° C., washed 2 times, and resusupended in DMEM-HSA solution.
Confluent endothelial monolayers, grown in 96-well tissue culture plates, were stimulated for 4 hr. at 37° C. with 0.1 ng/ml (˜50 U/ml) recombinant IL-1 (Amgen, Thousand Oaks, Calif.). Following this incubation, the monolayers were washed twice with HBSS and 0.1 ml of DMEM-HSA solution was added. Jurkat cells (5×10^5 cells) were combined with the appropriate concentration of the test compound and 0.1 ml of the Jurkat cell-compound mixture was added to the endothelial cell monolayers. Generally, 100, 20, 5 and 1.25 μM compound concentrations were tested. […] The plates were placed on ice for 5 minutes to allow for Jurkat cell settling and the plates were incubated at 37° C. for 20 minutes. Following this incubation, the monolayers were washed twice with PBS containing 1 mM calcium chloride and 1 mM magnesium chloride and the plates were read using a Millipore Cytofluor 2300 (Marlboro, Mass.). Fluorescence in each well was measured as Arbitrary Fluorescence Units and percent adhesion in the absence of compound was adjusted to 100% and the % adhesion in the presence of compound was calculated. Monolayers were also fixed in 3% paraformaldehyde and evaluated microscopically to verify the adhesion. This procedure is a modification of a previously published method (Cardarelli et al., J. Biol. Chem. 269:18668-18673 (1994)).

[2] = target: T2, α4β1 integrin (Jurkat cell adhesion to immobilized CS-1 derived peptide CLHPGEILDVPST) (Homo sapiens, UniProt P05556+P13612); assay: Jurkat-CS-1 Assay; assay type: cell-based; conditions: Jurkat cells on CS-1 peptide coated plates
T2 construct: 100 μl of Jurkat cells (2.5×10^6 cells/ml) in DMEM plus BSA; endogenous in cells; host or cells: Jurkat T-cell line
Description: The CS-1 derived peptide, CLHPGEILDVPST, and the scrambled control peptide, CLHGPIELVSDPT, were synthesized on a Beckman 990 synthesizer using t-Boc methodology. The peptides were immobilized onto microtiter plates using the heterobifunctional crosslinker 3-(2-pyridyldithio)propionic acid N-hydroxysuccinimide ester (SPDP) as reported by Pierschbacher et al., Proc. Natl. Acad. USA, 80:1224-1227 (1983). Microtiter plates were coated with 20 μg/ml HSA for 2 hr. at room temperature, washed once with PBS and derivatized with 10 μg/ml SPDP for 1 hr. After washing, 100 μl of a 100 μg/ml cysteine containing peptide solution which had been recently dissolved was added to the wells and allowed to crosslink to the plates overnight at 4° C. Unbound peptide was removed from plates by washing with PBS. To block non-reacted sites, the plates are coated with 100 μl of a 2.5 mg/ml BSA solution in PBS for 1 hr. at 37° C. 100 μl of Jurkat cells (2.5×10^6 cells/ml) in DMEM plus BSA (2.5 mg/ml) was mixed with an appropriate concentration of the compound to be tested and the mixture was added to peptide coated dishes and incubated for 1 hr. at 37° C. Generally 100, 20, 5 and 1.25 μM concentrations of the compound were tested.
Following this incubation the plates were washed once with PBS and the attached cells were fixed with 3% paraformaldehyde in PBS and stained with 0.5% toluidine blue in 3.7% formaldehyde. The cells were stained overnight at room temperature and the optical density at 590 nm of toluidine blue stained cells was determined using a vertical pathway spectrophotometer to quantitate attachment (VMAX Kinetic Microplate Reader, Molecular Devices, Menlo Park, Calif.). This procedure is a modification of a previously published method (Cardarelli et al, J. Biol. Chem., 269:18668-18673 (1994) and Cardarelli et al, Proc. Natl. Acad. Sci. USA, 83:2647-2651 (1986)).

T1 sequence (P13612 34-1032): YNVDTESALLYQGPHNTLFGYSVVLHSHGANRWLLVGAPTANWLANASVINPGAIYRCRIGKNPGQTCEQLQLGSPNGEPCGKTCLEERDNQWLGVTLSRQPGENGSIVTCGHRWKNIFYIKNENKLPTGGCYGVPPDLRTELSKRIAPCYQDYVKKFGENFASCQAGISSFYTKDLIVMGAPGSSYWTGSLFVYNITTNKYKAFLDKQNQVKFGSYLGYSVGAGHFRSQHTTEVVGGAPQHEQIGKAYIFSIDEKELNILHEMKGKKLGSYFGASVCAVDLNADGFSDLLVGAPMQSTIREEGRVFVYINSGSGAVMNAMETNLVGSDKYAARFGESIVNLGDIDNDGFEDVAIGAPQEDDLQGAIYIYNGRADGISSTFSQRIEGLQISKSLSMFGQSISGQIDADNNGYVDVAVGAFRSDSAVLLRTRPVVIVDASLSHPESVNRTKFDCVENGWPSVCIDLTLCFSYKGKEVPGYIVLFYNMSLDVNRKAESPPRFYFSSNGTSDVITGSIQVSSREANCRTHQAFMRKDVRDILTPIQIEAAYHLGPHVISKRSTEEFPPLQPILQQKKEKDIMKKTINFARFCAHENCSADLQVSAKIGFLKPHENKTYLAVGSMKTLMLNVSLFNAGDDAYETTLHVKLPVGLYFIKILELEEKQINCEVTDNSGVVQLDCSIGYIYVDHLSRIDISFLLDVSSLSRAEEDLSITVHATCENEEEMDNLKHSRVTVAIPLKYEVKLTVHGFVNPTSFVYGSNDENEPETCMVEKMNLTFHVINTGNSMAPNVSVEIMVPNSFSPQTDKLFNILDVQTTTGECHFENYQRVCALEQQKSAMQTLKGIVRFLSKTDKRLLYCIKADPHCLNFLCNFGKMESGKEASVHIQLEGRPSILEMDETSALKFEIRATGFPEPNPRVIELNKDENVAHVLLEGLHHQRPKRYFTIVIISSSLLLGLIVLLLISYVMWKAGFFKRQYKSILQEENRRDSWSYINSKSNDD
T1 sequence (P05556 21-798): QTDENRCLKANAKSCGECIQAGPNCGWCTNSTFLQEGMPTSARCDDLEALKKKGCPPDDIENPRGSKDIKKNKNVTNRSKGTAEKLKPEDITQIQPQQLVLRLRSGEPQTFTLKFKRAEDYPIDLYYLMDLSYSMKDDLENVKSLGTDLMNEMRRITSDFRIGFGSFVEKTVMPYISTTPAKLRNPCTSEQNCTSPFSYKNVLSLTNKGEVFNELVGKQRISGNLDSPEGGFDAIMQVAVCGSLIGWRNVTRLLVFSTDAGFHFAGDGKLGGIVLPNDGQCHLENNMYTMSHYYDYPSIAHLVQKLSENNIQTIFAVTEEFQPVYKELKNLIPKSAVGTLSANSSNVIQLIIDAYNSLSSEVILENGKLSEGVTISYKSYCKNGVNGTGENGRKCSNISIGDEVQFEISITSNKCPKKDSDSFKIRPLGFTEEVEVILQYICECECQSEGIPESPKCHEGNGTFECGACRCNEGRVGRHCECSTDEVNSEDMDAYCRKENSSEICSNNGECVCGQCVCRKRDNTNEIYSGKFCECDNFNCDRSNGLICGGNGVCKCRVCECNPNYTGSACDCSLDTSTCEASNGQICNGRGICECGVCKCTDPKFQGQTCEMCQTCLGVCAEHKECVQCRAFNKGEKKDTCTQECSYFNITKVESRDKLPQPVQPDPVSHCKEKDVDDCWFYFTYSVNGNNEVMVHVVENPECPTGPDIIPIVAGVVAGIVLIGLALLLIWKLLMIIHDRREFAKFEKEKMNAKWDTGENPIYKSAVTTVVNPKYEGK
T2 sequence (P13612 34-1032): as the sequence (P13612 34-1032) above
T2 sequence (P05556 21-798): as the sequence (P05556 21-798) above

| SMILES | IC50 [1] [nM] | IC50 [2] [nM] |
| --- | --- | --- |
| CC1(C)[C@@H](C(=O)N[C@@H](Cc2ccc(OCc3ccc4ccccc4c3)cc2)C(=O)O)CC[C@@]1(C)C(=O)O [Example 10] | 800 to 5000 | 80 to 500 |
| CC1(C)[C@@H](C(=O)N[C@@H](Cc2cn(Cc3ccc(Cl)cc3Cl)cn2)C(=O)O)CC[C@@]1(C)C(=O)O [Example 24] | 800 to 5000 | 80 to 500 |
| CC1(C)[C@@H](C(=O)N[C@@H](Cc2cn(Cc3c(Cl)cccc3Cl)cn2)C(=O)O)CC[C@@]1(C)C(=O)O [Example 26] | 800 to 5000 | 500 to 1000 |
| CC1(C)[C@@H](C(=O)N[C@@H](Cc2cn(Cc3ccc(Cl)cc3)cn2)C(=O)O)CC[C@@]1(C)C(=O)O [Example 28] | 800 to 5000 | 80 to 500 |
| CC1(C)[C@@H](C(=O)N[C@@H](Cc2cn(Cc3ccccc3C(F)(F)F)cn2)C(=O)O)CC[C@@]1(C)C(=O)O [Example 36] | 5000 to 10000 | 500 to 1000 |
| CC1(C)[C@@H](C(=O)N[C@@H](Cc2cn(Cc3ccc4ccccc4c3)cn2)C(=O)O)CC[C@@]1(C)C(=O)O [Example 38] | 800 to 5000 | 80 to 500 |
| COC(=O)[C@H](Cc1ccc(NC(=O)c2c(Cl)cccc2Cl)cc1)NC(=O)[C@H]1CC[C@@](C)(C(=O)O)C1(C)C [Example 53, (1S-cis)-N-[(3-Carboxy-2,2,3-trimethylcyclopentyl)carbonyl]-4-[(2,6-dichlorobenzoyl)amino]-L-phenylalanine methyl ester] | 800 to 5000 | 500 to 1000 |
| CC1(C)[C@@H](C(=O)N[C@@H](Cc2ccc(OCc3c(Cl)cccc3Cl)c(O)c2)C(=O)O)CC[C@@]1(C)C(=O)O [Example 65] | ≤ 800 | 80 to 500 |
| COC(=O)[C@H](Cc1ccc(NC(=O)c2c(Cl)cc(Cl)cc2Cl)cc1)NC(=O)[C@H]1CC[C@@](C)(C(=O)O)C1(C)C [Example 92] | ≤ 800 | ≤ 80 |
| CC1(C)[C@@H](C(=O)N[C@@H](Cc2ccc(NC(=O)c3ccccc3[N+](=O)[O-])cc2)C(=O)O)CC[C@@]1(C)C(=O)O [Example 102] | ≤ 800 | ≤ 80 |
| COC(=O)[C@H](Cc1ccc(NC(=O)c2cc(C(F)(F)F)ccc2C(F)(F)F)cc1)NC(=O)[C@H]1CC[C@@](C)(C(=O)O)C1(C)C [Example 103] | ≤ 800 | ≤ 80 |
| CC1(C)[C@@H](C(=O)N[C@@H](Cc2ccc(C(=O)Nc3c(Cl)cccc3Cl)cc2)C(=O)O)CC[C@@]1(C)C(=O)O [Example 153] | 800 to 5000 | 80 to 500 |
| CC1(C)[C@@H](C(=O)N[C@@H](Cc2ccc(NC(=O)c3c(Cl)cccc3Cl)cc2)C(=O)O)CC[C@@]1(C)/C=C/C(=O)O [Example 182, [1S-[1α,3α(E)]]-N-[[3-(2-Carboxyethenyl)-2,2,3-trimethylcyclopentyl]carbonyl]-4-[(2,6-dichlorobenzoyl)amino]-L-phenylalanine disodium salt] | ≤ 800 | ≤ 80 |
| CC1(C)[C@@H](C(=O)O)CC[C@@]1(C)C(=O)N[C@@H](Cc1ccc(OCc2c(Cl)cccc2Cl)cc1)C(=O)O [Example 186, (1R-cis)-N-[(3-Carboxy-1,2,2-trimethylcyclopentyl)carbonyl]-O-[(2,6-dichlorophenyl)methyl]-L-tyrosine] | 800 to 5000 | 80 to 500 |

Further lines, results first:

| IC50 [1] [nM] | IC50 [2] [nM] | SMILES |
| --- | --- | --- |
| ≤ 800 | 80 to 500 | CC1(C)[C@@H](C(=O)O)CC[C@@]1(C)NC(=O)N[C@]1(C)CC[C@H](C(=O)N[C@@H](Cc2ccc(NC(=O)c3c(Cl)cccc3Cl)cc2)C(=O)O)C1(C)C (relative stereo) [Example 236, [1S-[1α,3α(1S*,3R*)-N-]]-N-[[3[[[(3-Carboxy-1,2,2-trimethylcyclopentyl)amino]carbonyl]-amino]-2,2,3-trimethylcyclopentyl]carbonyl]-4-[(2,6-dichlorobenzoyl)-amino]-L-phenylalanine] |
| 800 to 5000 | 80 to 500 | CC1(C)[C@@H](C(=O)N[C@H](Cc2ccc(OCc3c(Cl)cccc3Cl)cn2)C(=O)O)CC[C@@]1(C)C(=O)O (relative stereo) [Example 254, [1S-[1α(R*),3α]]-α-[[(3-Carboxy-2,2,3-trimethylcyclopentyl)carbonyl]amino]-3-[(2,6-dichlorophenyl)methoxy]-6-pyridinepropanoic acid] |
| 800 to 5000 | 80 to 500 | CC1(C)[C@@H](C(=O)N[C@@H](Cc2ccc(OCc3c(Cl)cccc3Cl)cc2)C(=O)O)CC[C@@]1(C)C(=O)NCC(N)=O [Example 187, (1S-cis)-N-[[3-[[(2-amino-2-oxoethyl)-amino]carbonyl]-2,2,3-trimethylcyclopentyl]carbonyl]-O-[(2,6-dichlorophenyl)methyl]-L-tyrosine] |
| ≤ 800 | ≤ 80 | CC1(C)[C@@H](C(=O)N[C@@H](Cc2ccc(NC(=O)c3c(Cl)cccc3Cl)cc2)C(=O)O)CC[C@@]1(C)C(=O)NCCC(=O)O [Example 214] |
| ≤ 800 | ≤ 80 | CC1(C)[C@@H](C(=O)N[C@@H](Cc2ccc(NC(=O)c3c(Cl)cccc3Cl)cc2)C(=O)O)CC[C@@]1(C)C(=O)NCCC#N [Example 216, (1S-cis)-N-[[3-[[(2-Cyanoethyl)amino]carbonyl]-2,2,3-trimethylcyclopentyl]carbonyl]-4-[(2,6-dichlorobenzoyl)amino]-L-phenylalanine] |
| ≤ 800 | ≤ 80 | CC1(C)[C@@H](C(=O)N[C@@H](Cc2ccc(NC(=O)c3c(Cl)cccc3Cl)cc2)C(=O)O)CC[C@@]1(C)C(=O)NO [Example 219, (1S-cis)-4-[(2,6-Dichlorobenzoyl)amino]-N-[[3-[(hydroxyamino)carbonyl]-2,2,3-trimethyl-cyclopentyl]carbonyl]-L-phenylalanine] |
| 800 to 5000 | 80 to 500 | CC1(C)[C@@H](C(=O)N[C@@H](Cc2ccc(C(=O)Nc3ccc(-c4ccccc4)cc3)cc2)C(=O)O)CC[C@@]1(C)C(=O)O [Example 220] |
| 5000 to 10000 | 500 to 1000 | CC1(C)[C@@H](C(=O)N[C@@H](Cc2ccc(C(=O)Nc3ccc(Cl)cc3)cc2)C(=O)O)CC[C@@]1(C)C(=O)O [Example 221] |
| ≤ 800 | 80 to 500 | CC1(C)[C@@H](C(=O)N[C@@H](Cc2ccc(C(=O)Nc3ccccc3C(F)(F)F)cc2)C(=O)O)CC[C@@]1(C)C(=O)O [Example 222] |
| ≤ 800 | ≤ 80 | CC1(C)[C@@H](C(=O)N[C@@H](Cc2ccc(C(=O)Nc3c(Cl)cc(Cl)cc3Cl)cc2)C(=O)O)CC[C@@]1(C)C(=O)O [Example 223] |
